Test results as given in US20210059933A1, “HYDROGELS AS ORAL DELIVERY DOSAGE FORMS, METHODS OF MAKING AND USING SAME” (priority 2019, published 2021).

Columns and labels:
[1] = Dissolution of drug encapsulated in acid-hydrolysable hydrogels in 0.1M HCl solution (pH=1); format: physicochemical; conditions: immediate release acid-hydrolysable hydrogels
Excerpt: FIG. 3 is a dissolution profile of vitamin E (tocopherol) encapsulated at various drug loading levels in hydrogels composed of 25% by volume acetal cross-linker into a 0.1M HCl solution (pH=1).
The hydrogel labelled acetal hydrogel [w/ 10% surfactant] {w/ 15% surfactant} were synthesized by polymerizing a pre-cursor solution containing 25% [20%] {20%} by volume of the triethylene glycol di[ethyl-1-methacryloyloxy poly(ethylene glycol) acetal] cross-linker, 0% [3.9%] {3.9%} by volume of methyl methacrylate, 0% [6.1%] {6.1%} by volume of dimethylaminoethyl methacrylate, and 0% [10%] {15%} by volume of a hydrolytically hydrolysable surfactant monomer: acetaldehyde-(stearyl PEG-20 ether)-(acrylate ethylene glycol) acetal. Each drug substance is loaded into the pores of the hydrogel by first dissolving in ethanol and adding the organic solution into a silicone mold containing the pre-formed and washed hydrogel followed by evaporation of the solvent. Sufficient drug substance solution is added to the mold to reach a range of drug loading values.

[2] = lipophilic partition coefficient of the drug; cited from earlier work
[3] = Release of drug from drug-loaded disintegrating hydrogel into simulated gastric fluid, supersaturation by UV-vis; conditions: 2 hours, 150 rpm, hydrogel from 25% by volume acetal cross-linker, drug loading as in % wt drug
Experimental: A disintegrating hydrogel is first formed from 0.125 mL of a solution of dimethylformamide containing 25% by volume of the cross-linker triethylene glycol di[ethyl-1-methacryloyloxy poly(ethylene glycol) acetal] and 5% by volume of the photoinitiator 2-hydroxy-2-methylpropiophenone then purified by washing several times in ethanol. This disintegrating hydrogel is then transferred to the same solvent used to maximize the dissolution of the active pharmaceutical ingredient of interest. The hydrogel is transferred to a silicone mold and heated for a minimum amount of time to evaporate a majority of the solvent soaked into the hydrogel pores. Then about 0.1 mL of a solution of the active pharmaceutical ingredient solubilized in the preferred solvent is added to the silicone mold containing the hydrogel, which is allowed to swell in order to absorb the solution. Once absorbed, the solvent is removed in a vacuum oven in order to induce the crystallization of the active pharmaceutical ingredient in the hydrogel pores. The mass of the active pharmaceutical ingredient contained in the disintegrating hydrogel is determined experimentally then normalized by the combined mass of both components to quantify the weight fraction of the active pharmaceutical ingredient.
The hydrogel is added to the vial and allowed to dissolve over the course of 2 hours. The presence of the active pharmaceutical ingredient in the aqueous solution is monitored by ultraviolet-visible spectrometry to quantify the concentration relative to the inherent solubility of the active pharmaceutical ingredient without a hydrogel present. The ratio of the solubility achieved upon release from disintegrating hydrogels to the solubility achieved upon dissolution without disintegrating hydrogels is the supersaturation.

[4] = drug by itself; cited from earlier work

| Molecule | supersaturation level of final concentration [1] | log P [2] | X_sat (supersaturation: ratio of solubility achieved upon release from disintegrating hydrogels to solubility without hydrogels) [3] | C_s (aqueous solubility) [4] [µg/mL] |
| --- | --- | --- | --- | --- |
| tocopherol [tocopherol (vitamin E)] | up to 74 times the intrinsic solubility |  |  |  |
| C[C@H]1C[C@@H]2[C@H]([C@@H](O)C[C@@]3(C)[C@H]2CC[C@]3(O)C(=O)CO)[C@@]2(C)C=CC(=O)C=C12 [methylprednisolone] |  | 1.53 |  |  |
| C[C@@H]1[C@H](O)[C@@H](C)/C=C/C=C/C=C/C=C/C=C/C=C/C=C/[C@H](O[C@@H]2O[C@H](C)[C@@H](O)[C@H](N)[C@@H]2O)C[C@@H]2O[C@](O)(C[C@@H](O)C[C@@H](O)[C@H](O)CC[C@@H](O)C[C@@H](O)CC(=O)O[C@H]1C)C[C@H](O)[C@H]2C(=O)O [amphotericin b] |  | 0.8 | 13.8 | 82 |
| COC1=C(OC)C(=O)C(C/C=C(\C)CC/C=C(\C)CC/C=C(\C)CC/C=C(\C)CC/C=C(\C)CC/C=C(\C)CC/C=C(\C)CC/C=C(\C)CC/C=C(\C)CCC=C(C)C)=C(C)C1=O [Coenzyme Q10] |  | 9.9 | 69.1 | 0.2 |
| CC/C=C\C/C=C\C/C=C\C/C=C\C/C=C\CCCC(=O)O [eicosapentaenoic acid] |  | 6.1 |  | 0.29 |
| Cc1cn(-c2cc(NC(=O)c3ccc(C)c(Nc4nccc(-c5cccnc5)n4)c3)cc(C(F)(F)F)c2)cn1 [nilotinib] |  | 4.51 |  | 2.01 |
| CCCSc1ccc2nc(NC(=O)OC)[nH]c2c1 [albendazole] |  | 2.7 | 2.01 | 22.8 |
| CC(=O)[C@H]1CC[C@H]2[C@@H]3CCC4=CC(=O)CC[C@]4(C)[C@H]3CC[C@]12C [progesterone] | ≤ 11 times the intrinsic solubility |  |  | 5.5 |
| CC(C)/N=c1\cc2n(-c3ccc(Cl)cc3)c3ccccc3nc-2cc1Nc1ccc(Cl)cc1 [clofazimine] |  |  |  | 0.23 |
| CCCCN(CCCC)CC(O)c1cc(Cl)cc2c1-c1ccc(Cl)cc1/C2=C/c1ccc(Cl)cc1 (centres unmarked) [lumefantrine] |  | 8.34 |  | 0.04 |
| Cc1ccc(Nc2nccc(N(C)c3ccc4c(C)n(C)nc4c3)n2)cc1S(N)(=O)=O [pazopanib] |  | 3.59 |  | 43.3 |
| C=C(C)[C@@H]1CCC(C)=C[C@H]1c1c(O)cc(CCCCC)cc1O [cannabidiol (CBD), cannabidiol] |  |  | 22.3 |  |
